In patent publication US10202361B2, “Pyridazinones as herbicides” (E I DU PONT DE NEMOURS AND COMPANY, priority 2014, dated 2019):

Columns and labels:
Format in all cases: in vivo
[1] = tested on: cupgrass, woolly (woolly cupgrass, Eriochloa villosa); assay: Test C pre-/postemergence greenhouse herbicide test
Procedure, shortened: (§1)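 Visual ratings, 0 = no effect, 100 = complete control, vs untreated controls at 13–15 d. Pre: seeds in loam/sand. Post: 2–18 cm plants (1–4 leaf), peat/vermiculite mix. Surfactant-containing solvent formulation; greenhouse.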

[2] = tested on: bromegrass, downy (downy bromegrass, Bromus tectorum); assay: as above
Procedure, shortened: as §1

[3] = tested on: sunflower (common oilseed sunflower, Helianthus annuus); assay: as above; details: Preemergence
Procedure, shortened: as §1

[4] = tested on: bermudagrass (Cynodon dactylon); assay: as above
Procedure, shortened: as §1

[5] = tested on: Russian thistle (Salsola kali); assay: as above; details: Preemergence
Procedure, shortened: as §1

[6] = tested on: surinam grass (Brachiaria decumbens); assay: as above
Procedure, shortened: as §1

[7] = tested on: nightshade (eastern black nightshade, Solanum ptycanthum); assay: as above; details: Preemergence
Procedure, shortened: as §1

[8] = tested on: goosegrass (Eleusine indica); assay: as above
Procedure, shortened: as §1

[9] = tested on: cocklebur (common cocklebur, Xanthium strumarium); assay: as above
Procedure, shortened: as §1

[10] = tested on: foxtail, green (green foxtail, Setaria viridis); assay: as above
Procedure, shortened: as §1

[11] = tested on: windgrass (Apera spica-venti); assay: Test C postemergence greenhouse herbicide test
[12] = tested on: barley (winter barley, Hordeum vulgare); assay: Test C postemergence greenhouse herbicide test

Question: With `Cc1cc(=O)n(-c2ccc(F)cc2)nc1Oc1ccnc(C(F)(F)F)c1` [Compound 14, 2-(4-fluorophenyl)-5-methyl-6-[[2-(trifluoromethyl)-4-pyridinyl]oxy]-3 (2H)-pyridazinone] as the molecule, how does the Plant response rating ([1]; Postemergence, 31 g ai/ha) read?
Answer: 5

Question: And the Plant response rating ([1]; Postemergence, 62 g ai/ha)?
Answer: 15

Question: And the Plant response rating ([1]; Postemergence, 125 g ai/ha)?
Answer: 15

Question: What about the Plant response rating ([1]; Postemergence, 250 g ai/ha) of the same molecule?
Answer: 20

Question: And the Plant response rating ([1]; Preemergence, 31 g ai/ha)?
Answer: 65

Question: What about the Plant response rating ([1]; Preemergence, 62 g ai/ha) of the same molecule?
Answer: 95

Question: And the Plant response rating ([1]; Preemergence, 125 g ai/ha)?
Answer: 98

Question: And the Plant response rating ([1]; Preemergence, 250 g ai/ha)?
Answer: 98

Question: What about the Plant response rating ([2]; Postemergence, 31 g ai/ha) of the same molecule?
Answer: 5

Question: And the Plant response rating ([2]; Postemergence, 62 g ai/ha)?
Answer: 5

Question: And the Plant response rating ([2]; Postemergence, 125 g ai/ha)?
Answer: 5

Question: What about the Plant response rating ([2]; Postemergence, 250 g ai/ha) of the same molecule?
Answer: 30

Question: And the Plant response rating ([2]; Preemergence, 31 g ai/ha)?
Answer: 5

Question: And the Plant response rating ([2]; Preemergence, 62 g ai/ha)?
Answer: 5

Question: And the Plant response rating ([2]; Preemergence, 125 g ai/ha)?
Answer: 5

Question: And the Plant response rating ([2]; Preemergence, 250 g ai/ha)?
Answer: 30

Question: And the Plant response rating ([3]; 62 g ai/ha)?
Answer: 5

Question: What about the Plant response rating ([3]; 125 g ai/ha) of the same molecule?
Answer: 5

Question: What about the Plant response rating ([3]; 250 g ai/ha) of the same molecule?
Answer: 10

Question: And the Plant response rating ([4]; Postemergence, 31 g ai/ha)?
Answer: 5

Question: And the Plant response rating ([4]; Postemergence, 62 g ai/ha)?
Answer: 10

Question: What about the Plant response rating ([4]; Postemergence, 125 g ai/ha) of the same molecule?
Answer: 10

Question: And the Plant response rating ([4]; Postemergence, 250 g ai/ha)?
Answer: 15

Question: What about the Plant response rating ([4]; Preemergence, 31 g ai/ha) of the same molecule?
Answer: 98

Question: What about the Plant response rating ([4]; Preemergence, 62 g ai/ha) of the same molecule?
Answer: 98

Question: And the Plant response rating ([4]; Preemergence, 125 g ai/ha)?
Answer: 98

Question: What about the Plant response rating ([4]; Preemergence, 250 g ai/ha) of the same molecule?
Answer: 98

Question: What about the Plant response rating ([5]; 31 g ai/ha) of the same molecule?
Answer: 85

Question: What about the Plant response rating ([5]; 62 g ai/ha) of the same molecule?
Answer: 90

Question: And the Plant response rating ([5]; 125 g ai/ha)?
Answer: 90

Question: What about the Plant response rating ([5]; 250 g ai/ha) of the same molecule?
Answer: 90

Question: And the Plant response rating ([6]; Postemergence, 31 g ai/ha)?
Answer: 5

Question: What about the Plant response rating ([6]; Postemergence, 62 g ai/ha) of the same molecule?
Answer: 10

Question: What about the Plant response rating ([6]; Postemergence, 125 g ai/ha) of the same molecule?
Answer: 30

Question: And the Plant response rating ([6]; Postemergence, 250 g ai/ha)?
Answer: 45

Question: What about the Plant response rating ([6]; Preemergence, 62 g ai/ha) of the same molecule?
Answer: 20

Question: What about the Plant response rating ([6]; Preemergence, 125 g ai/ha) of the same molecule?
Answer: 75

Question: And the Plant response rating ([6]; Preemergence, 250 g ai/ha)?
Answer: 75

Question: And the Plant response rating ([7]; 31 g ai/ha)?
Answer: 98

Question: And the Plant response rating ([7]; 62 g ai/ha)?
Answer: 98

Question: And the Plant response rating ([7]; 125 g ai/ha)?
Answer: 98

Question: What about the Plant response rating ([7]; 250 g ai/ha) of the same molecule?
Answer: 100

Question: And the Plant response rating ([8]; Postemergence, 31 g ai/ha)?
Answer: 5

Question: And the Plant response rating ([8]; Postemergence, 62 g ai/ha)?
Answer: 10

Question: And the Plant response rating ([8]; Postemergence, 125 g ai/ha)?
Answer: 15

Question: And the Plant response rating ([8]; Postemergence, 250 g ai/ha)?
Answer: 15

Question: What about the Plant response rating ([8]; Preemergence, 31 g ai/ha) of the same molecule?
Answer: 45

Question: And the Plant response rating ([8]; Preemergence, 62 g ai/ha)?
Answer: 80

Question: And the Plant response rating ([8]; Preemergence, 125 g ai/ha)?
Answer: 100

Question: What about the Plant response rating ([8]; Preemergence, 250 g ai/ha) of the same molecule?
Answer: 100

Question: And the Plant response rating ([9]; Postemergence, 31 g ai/ha)?
Answer: 35

Question: What about the Plant response rating ([9]; Postemergence, 62 g ai/ha) of the same molecule?
Answer: 40

Question: What about the Plant response rating ([9]; Postemergence, 125 g ai/ha) of the same molecule?
Answer: 40

Question: What about the Plant response rating ([9]; Postemergence, 250 g ai/ha) of the same molecule?
Answer: 85

Question: What about the Plant response rating ([9]; Preemergence, 31 g ai/ha) of the same molecule?
Answer: 0

Question: And the Plant response rating ([10]; Postemergence, 31 g ai/ha)?
Answer: 10

Question: What about the Plant response rating ([10]; Postemergence, 62 g ai/ha) of the same molecule?
Answer: 10

Question: And the Plant response rating ([10]; Postemergence, 125 g ai/ha)?
Answer: 40

Question: What about the Plant response rating ([10]; Postemergence, 250 g ai/ha) of the same molecule?
Answer: 98

Question: And the Plant response rating ([10]; Preemergence, 31 g ai/ha)?
Answer: 95

Question: And the Plant response rating ([10]; Preemergence, 62 g ai/ha)?
Answer: 95

Question: And the Plant response rating ([10]; Preemergence, 125 g ai/ha)?
Answer: 95

Question: And the Plant response rating ([10]; Preemergence, 250 g ai/ha)?
Answer: 95

Question: What about the Plant response rating ([11]; 31 g ai/ha) of the same molecule?
Answer: 20

Question: And the Plant response rating ([11]; 62 g ai/ha)?
Answer: 20

Question: What about the Plant response rating ([11]; 125 g ai/ha) of the same molecule?
Answer: 25

Question: What about the Plant response rating ([11]; 250 g ai/ha) of the same molecule?
Answer: 30

Question: And the Plant response rating ([12]; 31 g ai/ha)?
Answer: 5

Question: And the Plant response rating ([12]; 62 g ai/ha)?
Answer: 5

Question: What about the Plant response rating ([12]; 125 g ai/ha) of the same molecule?
Answer: 10

Question: What about the Plant response rating ([12]; 250 g ai/ha) of the same molecule?
Answer: 25
